Data published in paper PMC12432127, “Assessing the potential of bacterial signal peptides for radiopharmaceutical applications” (Scientific Reports, 2025).
“And” between values parts separate entries of the source, which are not always exact repeats. Equal entries are not always repeated. Residues, ends and D or L forms follow the SMILES beside them. *: point of attachment. For = O=C*

Experiments:
FPR1 = molecular target: T1, FPR1 (Homo sapiens, UniProt P21462); test: High-throughput calcium imaging (FLIPR), FPR1 transfected HEK293T cells; assay type: cell-based; details: for Calicum signal (dF/F0): FPR1-HEK
T1 construct: expressed in transfected cells; host or cells: HEK293T (transient, jetPEI)
T1 sequence (P21462 1-350): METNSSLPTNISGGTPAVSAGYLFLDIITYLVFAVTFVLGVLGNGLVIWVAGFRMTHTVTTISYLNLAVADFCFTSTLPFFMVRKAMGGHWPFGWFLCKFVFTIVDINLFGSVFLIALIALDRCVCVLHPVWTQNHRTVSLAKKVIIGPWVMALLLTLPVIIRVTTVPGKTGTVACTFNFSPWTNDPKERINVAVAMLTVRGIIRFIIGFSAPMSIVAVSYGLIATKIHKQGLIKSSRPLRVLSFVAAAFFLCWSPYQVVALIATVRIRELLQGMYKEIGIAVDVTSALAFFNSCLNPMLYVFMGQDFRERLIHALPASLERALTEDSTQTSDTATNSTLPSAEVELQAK
Description: (§1) Cell transfection was performed approximately 24 h after seeding the cells, when they reached about 70% confluence. Transfection was carried out using jetPEI™ (Polyplus) according to the following protocol: 0.25 µg DNA was diluted in 10 µL NaCl (150 mM). 0.5 µL of jetPEI™ solution in 10 µL NaCl was mixed with the DNA solution and incubated at RT for 15–30 min. After incubation, 20 µL of the jetPEI™/DNA mixture was added dropwise to the cells, which were then placed in the cell culture incubator at 37 °C and 5% CO2. After 18 to 24 h of transfection, the medium was replaced, and 100 µL per well was added, then placed back in the incubator.
(§2) Automated high-throughput Ca^2+ measurements using a fluorescence imaging plate reader (FLIPR, Molecular Devices) were performed. Briefly, […] were seeded in 96-well plates (~ 50,000 cells/well) one day before the experiments and incubated at 37 °C. HEK293T cells were co-transfected with the receptor or mock and the G protein Gα16 for 48 h. On the day of the experiments, the medium was removed, and the cells were loaded with a loading solution consisting of 2 µM Calbryte dye in C1 buffer (Calbryte 520AM, AAT Bioquest 20651) 50 µL per well, for at least 2 h at RT in the dark. After 2 h of loading with the fluorescent dye, the solution was removed, the plate was washed three times using an ELX50 washer (BioTek), and the intracellular release of calcium was measured using FLIPR. A Ca^2+ response was defined as an increase in the excitation ratio (340 nm/380 nm) that was at least four times higher than the mean baseline noise after bath application.
(§3) The results are expressed as the means ± standard deviations of the number of the indicated determinations. Calcium measurement experiments were routinely performed as triplicates and averaged over at least three independent transfections. Response amplitudes (F/F0) were calculated by dividing maximal fluorescence change after ligand application by baseline fluorescence. Maximal amplitudes were set to 100%, and curves were calculated with Graph Pad Prism Version 10.1 (GraphPad Software, Boston, MA, USA). S.D. values were calculated as averages from independently obtained EC50 values using the STDEV. Data derived from experiments were analyzed by two-way ANOVA. P < 0.05 was accepted as significant.

human FPR2 = molecular target: T2, human FPR2 (Homo sapiens, UniProt P25090); test: High-throughput calcium imaging (FLIPR), FPR2 transfected HEK293T cells; assay type: cell-based; details: read-out: EC50 Ca2+ mobilization
T2 construct: expressed in transfected cells; host or cells: HEK293T (transient, jetPEI)
T2 sequence (P25090 1-351): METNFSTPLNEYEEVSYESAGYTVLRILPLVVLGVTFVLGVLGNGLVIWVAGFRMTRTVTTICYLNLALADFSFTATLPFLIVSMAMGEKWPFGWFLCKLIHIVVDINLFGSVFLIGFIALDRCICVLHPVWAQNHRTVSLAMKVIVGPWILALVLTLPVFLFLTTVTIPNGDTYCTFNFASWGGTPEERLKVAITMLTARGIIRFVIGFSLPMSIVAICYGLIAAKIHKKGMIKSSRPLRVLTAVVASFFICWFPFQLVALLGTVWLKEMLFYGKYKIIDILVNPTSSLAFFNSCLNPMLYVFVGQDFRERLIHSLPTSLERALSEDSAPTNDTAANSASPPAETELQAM
Description: as §1
(§4) Automated high-throughput Ca^2+ measurements using a fluorescence imaging plate reader (FLIPR, Molecular Devices) were performed. […] After 2 h of loading with the fluorescent dye, the solution was removed, the plate was washed three times using an ELX50 washer (BioTek), and the intracellular release of calcium was measured using FLIPR. […]
(§5) The results are expressed as the means ± standard deviations of the number of the indicated determinations. […] Response amplitudes (F/F0) were calculated by dividing maximal fluorescence change after ligand application by baseline fluorescence. Maximal amplitudes were set to 100%, and curves were calculated with Graph Pad Prism Version 10.1 (GraphPad Software, Boston, MA, USA). […]

human FPR3 = molecular target: T3, human FPR3 (Homo sapiens, UniProt P25089); test: High-throughput calcium imaging (FLIPR), FPR3 transfected HEK293T cells; assay type: cell-based; details: up to 10 µM
T3 construct: expressed in transfected cells; host or cells: HEK293T (transient, jetPEI)
T3 sequence (P25089 1-353): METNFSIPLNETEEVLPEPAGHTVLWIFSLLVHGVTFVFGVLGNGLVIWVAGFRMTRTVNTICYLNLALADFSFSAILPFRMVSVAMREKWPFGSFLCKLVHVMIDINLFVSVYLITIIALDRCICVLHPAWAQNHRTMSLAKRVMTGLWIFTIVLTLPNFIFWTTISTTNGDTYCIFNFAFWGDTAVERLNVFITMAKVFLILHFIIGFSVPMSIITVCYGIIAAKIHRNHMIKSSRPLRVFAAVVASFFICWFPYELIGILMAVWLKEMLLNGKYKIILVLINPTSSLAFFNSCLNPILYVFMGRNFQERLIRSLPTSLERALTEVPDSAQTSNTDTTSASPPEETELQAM
Description: as §1, §4, §5

U87-MG cells = test: Calcium imaging (FLIPR) in U87-MG cells; assay type: cell-based, human; details: for Calicum signal (dF/F0): U87 cells
Description: as §2, §3

[1] = Log Concentration (M) -6,5, single replicate values
[2] = Log Concentration (M) -6, single replicate values
[3] = Log Concentration (M) -7,5, single replicate values
[4] = Log Concentration (M) -7, single replicate values
[5] = Log Concentration (M) -8,5, single replicate values
[6] = Log Concentration (M) -8, single replicate values
[7] = Log Concentration (M) -9, single replicate values

CC[C@H](C)[C@H](NC(=O)[C@H](CCCCN)NC(=O)[C@@H](NC(=O)[C@@H]1CCCN1C(=O)[C@@H](NC(=O)[C@H](CCSC)NC=O)C(C)C)[C@@H](C)CC)C(=O)O [f-MVPIKI] (For-MVPIKI-OH; C-terminus assumed)
Calicum signal (dF/F0) (FPR1; [1]): 0,85 (2×) and 0,92
Calicum signal (dF/F0) (FPR1; [2]): 0,75 and 0,94 and 0,85
Calicum signal (dF/F0) (FPR1; [3]): 0,71 and 0,77 and 0,68
Calicum signal (dF/F0) (FPR1; [4]): 0,57 and 0,86 and 0,73
Calicum signal (dF/F0) (FPR1; [5]): 0,27 and 0,32 and 0,34
Calicum signal (dF/F0) (FPR1; [6]): 0,65 and 0,63 and 0,6
Calicum signal (dF/F0) (FPR1; [7]): 0,18 and 0,24 and 0,22
EC50 (FPR1; FPR1 transfected HEK293T cells, peak calcium response, read-out: EC50 Ca2+ mobilization): 4.3 ± 2.4 nM
preference for FPR1 over FPR2 (calcium EC50) (FPR1; FPR1 vs FPR2): approximately 14 fold
EC50 (human FPR2): 60 ± 0.76 nM
activation of FPR3 (calcium) (human FPR3): did not activate FPR3 at any tested concentration
EC50 (U87-MG cells; U87-MG cells, read-out: EC50 Ca2+ flux): 5.3 ± 2.4 nM
Calicum signal (dF/F0) (U87-MG cells; [1]): 1,19 (2×) and 0,99 and 1,7 and 1,4
Calicum signal (dF/F0) (U87-MG cells; [2]): 1,22 and 1,13 and 1,2 and 1,14 and 1,1
Calicum signal (dF/F0) (U87-MG cells; [3]): 1 and 0,95 and 0,98 and 1,12 and 1,1
Calicum signal (dF/F0) (U87-MG cells; [4]): 1 and 1,1 and 1,2 and 1,18 and 0,99
Calicum signal (dF/F0) (U87-MG cells; [5]): 0,66 (2×) and 0,69 and 0,6 and 0,47
Calicum signal (dF/F0) (U87-MG cells; [6]): 0,9 and 0,98 and 0,94 and 1,3 and 1,07
Calicum signal (dF/F0) (U87-MG cells; Log Concentration (M) -9,5, single replicate values): 0,01 and 0,08 and 0,09 and 0,1 and 0,3
Calicum signal (dF/F0) (U87-MG cells; [7]): 0,14 and 0,23 and 0,2 and 0,12 and 0,38
